Results: US20250084026A1, “NOVEL SALT OF 1-SULFONYL PYRROLE DERIVATIVE, PREPARATION METHOD THEREOF AND PHARMACEUTICAL COMPOSITION COMPRISING THEREOF” (ILDONG PHARMACEUTICAL CO., LTD., priority 2021, published 2025)
≈ marks a conversion by molar mass, not a printed value. Where two headings read alike, the source gives them in different places.

Assays:
Type in all cases: physicochemical
[1] = Thermal gravimetric analysis (TGA) weight loss
Procedure: Using Pyris 1 TGA manufactured by PerkinElmer, Inc., a compound sample (about 5 mg) was weighed in pans under nitrogen purge at a ramp rate of 20° C./min over the range of 30 to 300° C.

[2] = Dynamic vapor sorption (DVS) hygroscopicity; conditions: 25° C., 0%~95%~0% RH cycle; compared to the known hygroscopicity evaluation standard
Procedure: Using DVS intrinsic manufactured by Surface Measurement Systems Ltd, about 20 mg of the sample was tested for water sorption/desorption profiles at 25° C. under a 0%˜95%˜0% relative humidity (RH) cycle using the following parameters.
Equilibrium: dm/dt: 0.01%/min.
Range of RH (%) measurement step: 0%˜95%˜0%; RH (%) measurement step: 5%

[3] = Solubility in bio-relevant media (water, SGF, FaSSIF, FeSSIF), HPLC; conditions: for solubility at 1 h / solubility at 24 h: thermodynamic from solid; for solubility at 1 h: read-out: Solubility-1 h concentration; for solubility at 24 h: read-out: Solubility-24 h concentration
Procedure: Solubility in bio-relevant media, i.e., stimulated gastric fluid (SGF), fasted state simulated intestinal fluid (FaSSIF), and fed state simulated intestinal fluid (FeSSIF) of the free base and the fumarate salt of 1-(5-(2-fluorophenyl)-4-methoxy-1-((6-methoxypyridin-3-yl) sulfonyl)-1H-pyrrole-3-yl)-N-methylmethanamine that was confirmed through the salt screening analysis result, was confirmed.
Buffers for the bio-relevant media were prepared as follows. • Water: Laboratory Milli-Q purified water. • SGF (Stimulated Gastric Fluid): 2.0 g of sodium chloride and 7 mL of hydrochloric acid dissolved in 1000 ml of water was used. • FaSSIF (Fasted State Simulated Intestinal Fluid): A commercial product purchased from Bio-Relevant Company and manufactured according to instructions was used. • FeSSIF (Fed State Simulated Intestinal Fluid): A commercial product purchased from Bio-Relevant Company and prepared according to instructions was used.
For the experiment, about 10 mg of compound (10 mg as free base form) was weighed into each glass vial and then 1 mL of medium was added (final concentration of 10 mg/mL). Then, the sample was continuously stirred in a magnetic stirrer at 37° C. at a speed of 200 rpm. After stirring for 1 hour and 24 hours, 0.5 mL of the sample solution was transferred to a 1.5 mL centrifuge tube and centrifuged at 12,000 rpm for 5 minutes. The supernatant was diluted with suitable methanol and analyzed by HPLC.
The free base was selected as a standard sample to quantify the solubility, and about 10 mg of the free base was weighed into a 25 mL flask and dissolved in methanol to the curve.
The residue of the compound in water was tested by XRPD to determine the solid state.

[4] = Drug stability under stress condition, 60° C. open, XRPD and HPLC; conditions: for HPLC peak RT 10.063 min, RRT 1.00 / HPLC peak RT 7.423 min, RRT 0.74 / HPLC peak RT 10.277 min, RRT 1.02: in %; for Stability under harsh conditions (in words): up to Week 2
Procedure: 10 mg and 40 mg of the free base and the fumaric acid salt of 1-(5-(2-fluorophenyl)-4-methoxy-1-((6-methoxypyridin-3-yl) sulfonyl)-1H-pyrrol-3-yl)-N-methylmethanamine were weighed into each vial and stored under stress conditions to investigate stability.
The stress conditions are as follows: • high temperature open room condition: 60° C.; • The bottle neck of the vial was wrapped with aluminum foil with pinholes to avoid contamination, and the samples were analyzed by XRPD and HPLC at the onset (Day 0), week 1 and week 2.

[5] = Drug stability at 40° C., 75% RH for 8 weeks (XRPD, TGA, HPLC)
Procedure: In order to confirm the stability of the fumarate salt of 1-(5-(2-fluorophenyl)-4-methoxy-1-((6-methoxypyridin-3-yl) sulfonyl)-1H-pyrrole-3-yl)-N-methylmethanamine prepared under an isopropyl alcohol solvent, water sorption and/or hydrate formation were confirmed under conditions of 75% RH at 40° C. for 8 weeks.
To proceed with the experiment, 100 mg of the fumarate salt of 1-(5-(2-fluorophenyl)-4-methoxy-1-((6-methoxypyridin-3-yl) sulfonyl)-1H-pyrrole-3-yl)-N-methylmethanamine was put in a vial with a wide mouth (Experimental group 1), and the other sample was put in a vial that is double-packed with a polyethylene bag (Experimental group 2). Then, both samples were placed inside a 40° C., 75% RH chamber and monitored at 2-week intervals.
The XRPD values were checked every two weeks to identify whether or not there was a change in the crystalline form, and the results are shown in Table 11.

[6] = Week 2, 4, 6 and 8, Experimental groups 1 and 2

Structure (SMILES): CNCc1cn(S(=O)(=O)c2ccc(OC)nc2)c(-c2ccccc2F)c1OC.O=P(O)(O)O [phosphate salt, Phosphate Salt of 1-(5-(2-fluorophenyl)-4-methoxy-1-((6-methoxypyridin-3-yl)sulfonyl)-1H-pyrrol-3-yl)-N-methylmethanamine]
- Hygroscopicity (from TGA, in words) [1]: high hygroscopicity
- TGA weight loss [1]: 1.0189%

Structure (SMILES): CNCc1cn(S(=O)(=O)c2ccc(OC)nc2)c(-c2ccccc2F)c1OC.O=C(O)/C=C/C(=O)O [Fumarate salt, fumarate salt of 1-(5-(2-fluorophenyl)-4-methoxy-1-((6-methoxypyridin-3-yl)sulfonyl)-1H-pyrrole-3-yl)-N-methylmethanamine]
- Hygroscopicity (DVS, in words) [2]: very low hygroscopicity
- Solubility (in words) ([3]; all of SGF, FaSSIF, and FeSSIF): excellent solubility
- Solubility (in words) ([3]; fasted state simulated intestinal fluid (FaSSIF)): very good solubility
- solubility at 1 h ([3]; simulated gastric fluid, SGF, 37° C.): > 10000 µg/mL
- solubility at 24 h ([3]; simulated gastric fluid, SGF, 37° C., 24 h): > 10000 µg/mL
- solubility at 1 h ([3]; FaSSIF, 37° C.): 7910 µg/mL
- solubility at 24 h ([3]; FaSSIF, 37° C., 24 h): 7580 µg/mL
- solubility at 1 h ([3]; FeSSIF, 37° C.): 4500 µg/mL
- solubility at 24 h ([3]; FeSSIF, 37° C., 24 h): 4440 µg/mL
- solubility at 1 h ([3]; water, 37° C.): 6390 µg/mL
- solubility at 24 h ([3]; water, 37° C., 24 h): 5320 µg/mL
- TGA weight loss (% w/w) ([1]; 120° C., listed as Example 3): ~0.0307%,
- % Impurities ([4]; 60° C., Week 1): 0.76%
- Assay % ([4]; 60° C., Week 1): 105.69%
- Crystalline form (XRPD) ([4]; 60° C., Week 1): Crystalline
- HPLC peak RT 9.327 min, RRT 0.93 ([4]; 60° C., Week 1): 0.17%
- HPLC peak RT 10.813 min, RRT 1.07 ([4]; 60° C., Week 1): 0.59%
- HPLC peak RT 10.063 min, RRT 1.00 ([4]; 60° C., Week 1): 99.24
- % Impurities ([4]; 60° C., Week 2): 0.80%
- Assay % ([4]; 60° C., Week 2): 94.74%
- Crystalline form (XRPD) ([4]; 60° C., Week 2): Crystalline
- HPLC peak RT 9.327 min, RRT 0.93 ([4]; 60° C., Week 2): 0.18%
- HPLC peak RT 10.813 min, RRT 1.07 ([4]; 60° C., Week 2): 0.62%
- HPLC peak RT 10.063 min, RRT 1.00 ([4]; 60° C., Week 2): 99.20
- Stability under harsh conditions (in words) ([4]; 60° C.): excellent stability
- % Impurities ([4]; Day 0): 0.77%
- Assay % ([4]; Day 0): 100.00%
- Crystalline form (XRPD) ([4]; Day 0): Crystalline
- HPLC peak RT 9.327 min, RRT 0.93 ([4]; Day 0): 0.17%
- HPLC peak RT 10.813 min, RRT 1.07 ([4]; Day 0): 0.6%
- HPLC peak RT 10.063 min, RRT 1.00 ([4]; Day 0): 99.23
- Polymorphic change vs initial XRPD of crystalline Form I ([5]; 8 weeks): no polymorphic change
- Whether or not XRPD value changed ([5]; Experimental group 1 (vial with a wide mouth), Week 2): Same
- Whether or not XRPD value changed ([5]; Experimental group 1 (vial with a wide mouth), Week 2 (second line so printed, r7)): Same
- Whether or not XRPD value changed ([5]; Experimental group 1 (vial with a wide mouth), Week 6): Same
- Whether or not XRPD value changed ([5]; Experimental group 1 (vial with a wide mouth), Week 8): Same
- Whether or not XRPD value changed ([5]; Experimental group 2 (vial double-packed with polyethylene bag), Week 2): Same
- Whether or not XRPD value changed ([5]; Experimental group 2 (vial double-packed with polyethylene bag), Week 2 (second line so printed, r7)): Same
- Whether or not XRPD value changed ([5]; Experimental group 2 (vial double-packed with polyethylene bag), Week 6): Same
- Whether or not XRPD value changed ([5]; Experimental group 2 (vial double-packed with polyethylene bag), Week 8): Same
- Hygroscopicity (TGA analysis, in words) [5, 6]: significantly low hygroscopicity
- Purity (HPLC analysis, in words) [5, 6]: high purity

Structure (SMILES): CNCc1cn(S(=O)(=O)c2ccc(OC)nc2)c(-c2ccccc2F)c1OC [Free base, 1-(5-(2-fluorophenyl)-4-methoxy-1-((6-methoxypyridin-3-yl)sulfonyl)-1H-pyrrol-3-yl)-N-methylmethanamine]
- Solubility-24 h concentration ([3]; water, 37° C., 24 h): 8630 µg/mL (≈ 21.3 mM)
- % Impurities ([4]; 60° C., Week 1): 20.94%
- Assay % ([4]; 60° C., Week 1): 67.44%
- Crystalline form (XRPD) ([4]; 60° C., Week 1): Melted
- HPLC peak RT 6.797 min, RRT 0.68 ([4]; 60° C., Week 1): 0.43%
- HPLC peak RT 7.563 min, RRT 0.75 ([4]; 60° C., Week 1): 1%
- HPLC peak RT 9.327 min, RRT 0.93 ([4]; 60° C., Week 1): 0.18%
- HPLC peak RT 10.813 min, RRT 1.07 ([4]; 60° C., Week 1): 0.57%
- HPLC peak RT 7.423 min, RRT 0.74 ([4]; 60° C., Week 1): 18.86
- HPLC peak RT 10.063 min, RRT 1.00 ([4]; 60° C., Week 1): 79.06
- HPLC peak RT 10.277 min, RRT 1.02 ([4]; 60° C., Week 1): 9.95
- % Impurities ([4]; 60° C., Week 2): 35.00%
- Assay % ([4]; 60° C., Week 2): 60.29%
- Crystalline form (XRPD) ([4]; 60° C., Week 2): Melted
- HPLC peak RT 6.797 min, RRT 0.68 ([4]; 60° C., Week 2): 0.31%
- HPLC peak RT 7.563 min, RRT 0.75 ([4]; 60° C., Week 2): 4.12%
- HPLC peak RT 9.327 min, RRT 0.93 ([4]; 60° C., Week 2): 0.14%
- HPLC peak RT 10.813 min, RRT 1.07 ([4]; 60° C., Week 2): 0.53%
- HPLC peak RT 7.423 min, RRT 0.74 ([4]; 60° C., Week 2): 13.51
- HPLC peak RT 10.063 min, RRT 1.00 ([4]; 60° C., Week 2): 65.0
- HPLC peak RT 10.277 min, RRT 1.02 ([4]; 60° C., Week 2): 16.38
- Stability under harsh conditions (in words) ([4]; 60° C.): high impurity content
- % Impurities ([4]; Day 0): 0.85%
- Assay % ([4]; Day 0): 100.00%
- Crystalline form (XRPD) ([4]; Day 0): Free form
- HPLC peak RT 9.327 min, RRT 0.93 ([4]; Day 0): 0.18%
- HPLC peak RT 10.813 min, RRT 1.07 ([4]; Day 0): 0.66%
- HPLC peak RT 10.063 min, RRT 1.00 ([4]; Day 0): 99.15
